Experimental findings from PubChem BioAssay (NCI) are described below.

Several values for one entry are separate records, joined by “and”; a condition that tells them apart may be missing. Equal values may be shown once.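 Grown in 96-well plates, cells were treated for 48 hours with each compound at five concentrations. Insufficient inhibition: endpoint recorded as highest concentration tested. GI50: concentration for 50% inhibition of growth. TGI is the concentration that stops growth completely.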

The test system of the first test is A549 NSCLC. Description: inhibition of tumour cell growth, NCI panel, 48 h.
As to `O=C1c2ccccc2N2OC3(N4CCCC4)CCCC3C12c1ccccc1` (centres undefined), the TGI was greater than 100 µM.
Molecule `COc1ccc(C2C(Cl)C(=O)N2n2cnc3ccccc3c2=O)cc1OC` (centres undefined) yielded a TGI greater than 100 µM.
On to `Nc1nc2c(ncn2Cc2ccccc2CCO)c(=O)[nH]1`, for which the TGI was greater than 100 µM.
For `CCC1(Br)C(=O)NC(=O)N(C2CC(O)C(CO)O2)C1N=[N+]=[N-]` (centres undefined), the TGI is greater than 100 µM.
`CC(C)c1ccc2nc3ccc(C(=O)NCCN(C)C)cn3c(=O)c2c1` yielded a TGI of 34.7 µM.
The same measure, in the same setting: the same measure for `O=[N+]([O-])c1ccc(N=Nc2c(O)[nH]c3ccc([N+](=O)[O-])cc23)cc1`: 32.4 µM; for `CC12CC3(C)CC(C)(C1)CC(N=[N+]=[N-])(C2)C3`: greater than 100 µM; for `N=C(N)SCc1cn2ccccc2n1`: greater than 100 µM.
As to `Clc1ccc([O][In]([O]c2ccc(Cl)cn2)[O]c2ccc(Cl)cn2)nc1`, the GI50 is greater than 100 µM and the TGI was greater than 100 µM.
For the molecule `Fc1cccc(Cl)c1C1SCc2nc3ccccc3n21` (centres undefined), the TGI is greater than 100 µM.
Consider `COc1cc2nncc(Sc3cnnc4ccccc34)c2cc1OC`, for which the TGI is 71.9 µM.
Consider `COC(=O)C1=CCON(c2ccccc2)C1c1ccccc1` (centres undefined), for which the TGI was greater than 100 µM.
In turn, `CC(=O)N(CCN)CCN` came in with a TGI greater than 10 µM.
In turn, `Cc1cc(O)c2c(c1)C(O)(c1ccc3c(c1O)C(=O)c1c(O)cc(C)cc1C3(O)C1OC(CO)C(O)C(O)C1O)c1cccc(O)c1C2=O` (centres undefined) had a TGI of 32.2 µM.
For the molecule `COC(=O)c1nc(NN)[nH]c(=O)c1CCCCCc1c(C(=O)OC)[nH]c(NN)cc1=O`, the TGI is greater than 100 µM.
The same measure, in the same setting: the same measure for `CC1(C)C(=O)C(O)=CC2C1=CCC1C2(C)C(=O)CC2(C)C(C(C)(O)C(=O)CC(O)C(C)(C)O)C(O)CC12C` (centres undefined): greater than 74.1 µM; for `CCc1ccccc1NC(=O)C(=O)C(C(=O)c1ccc(OC)cc1)c1ccc(OC)cc1` (centres undefined): greater than 100 µM.
For `COc1ccc(C(=O)N2c3ccccc3Sc3ccccc32)c(F)c1`, the GI50 was 1.19 µM and the TGI is greater than 100 µM.
`C/C(=N/N(C=O)C[n+]1ccccc1)C(CN(CC(C)C)CC(C)C)C(=O)Nc1ccc(C)cc1C` (centres undefined) returned a TGI greater than 100 µM.
As to `COc1cc(C2c3cc4c(cc3[C@@H](Nc3ccc(N(C)C)cc3)[C@H]3COC(=O)C23)OCO4)cc(OC)c1O` (some centres undefined), the GI50 is 0.173 µM; the TGI was 2.02 µM and 3.09 µM.
`O=c1nc(-c2ccccc2)c2c3c(cccn13)CCC2` yielded a TGI greater than 100 µM.
`COc1ccc([C@H]2CC(=O)N3CCCC3N2)cc1` (some centres undefined) registered a TGI greater than 100 µM.
With `O=C(c1ccccc1)c1c(CC(O)c2cccnc2)n(C(=O)c2ccccc2)c2ccccc12` (centres undefined), the TGI is greater than 100 µM.
For the molecule `C=C(C)C1CC2C(C)=C(OC(C)=O)C1n1c(=O)c3cc4ccccc4cc3c(=O)n12` (centres undefined), the TGI was greater than 100 µM.
For `O=C(CCc1nc(=S)[nH][nH]1)NC12CC3CC(CC(C3)C1)C2`, the TGI is greater than 100 µM.
Same read-out and setting: the same measure for `CSc1nc2c(c(O)c(C)c(=O)n2C2OC(COC(C)=O)C(OC(C)=O)C(OC(C)=O)C2OC(C)=O)c(=O)n1C` (centres undefined): greater than 100 µM; for `Cc1nc2c(n1CC(C)(C)C)C(=O)c1ccccc1C2=O`: greater than 100 µM.
In the case of `COc1ccc(C(C2=C(C)C(=O)c3ccccc3C2=O)c2ccc(C(C)C)cc(=O)c2O)cc1` (centres undefined), the TGI was determined as 13.4 µM.
Consider `CC(C)N(C(=O)C12C3C4C1C1C2C3C41C(O)C(C)(C)C)C(C)C` (centres undefined), for which the TGI is greater than 50 µM.

The test system of a further test is EKVX NSCLC. Description: inhibition of tumour cell growth, NCI panel, 48 h.
`O=C1c2ccccc2N2OC3(N4CCCC4)CCCC3C12c1ccccc1` (centres undefined) returned a TGI greater than 100 µM.
The molecule `COc1ccc(C2C(Cl)C(=O)N2n2cnc3ccccc3c2=O)cc1OC` (centres undefined) showed a TGI greater than 100 µM.
`Nc1nc2c(ncn2Cc2ccccc2CCO)c(=O)[nH]1` had a TGI greater than 100 µM.
With `CCC1(Br)C(=O)NC(=O)N(C2CC(O)C(CO)O2)C1N=[N+]=[N-]` (centres undefined), the TGI is greater than 100 µM.
Still for that read-out and setting: in the case of `CC(C)c1ccc2nc3ccc(C(=O)NCCN(C)C)cn3c(=O)c2c1` it was 34.7 µM; in that of `O=[N+]([O-])c1ccc(N=Nc2c(O)[nH]c3ccc([N+](=O)[O-])cc23)cc1`, greater than 100 µM; in that of `CC12CC3(C)CC(C)(C1)CC(N=[N+]=[N-])(C2)C3`, greater than 100 µM.
Same read-out and setting: the same measure for `N=C(N)SCc1cn2ccccc2n1`: greater than 100 µM.
With `Clc1ccc([O][In]([O]c2ccc(Cl)cn2)[O]c2ccc(Cl)cn2)nc1`, the GI50 is greater than 100 µM and the TGI is greater than 100 µM.
As to `Fc1cccc(Cl)c1C1SCc2nc3ccccc3n21` (centres undefined), the TGI was greater than 100 µM.
`COc1cc2nncc(Sc3cnnc4ccccc34)c2cc1OC`: the TGI is greater than 100 µM.
Consider `COC(=O)C1=CCON(c2ccccc2)C1c1ccccc1` (centres undefined), for which the TGI was greater than 100 µM.
As for `CC(=O)N(CCN)CCN`, the TGI was greater than 100 µM.
Still for that read-out and setting: in the case of `Cc1cc(O)c2c(c1)C(O)(c1ccc3c(c1O)C(=O)c1c(O)cc(C)cc1C3(O)C1OC(CO)C(O)C(O)C1O)c1cccc(O)c1C2=O` (centres undefined) it was 28.2 µM; in that of `COC(=O)c1nc(NN)[nH]c(=O)c1CCCCCc1c(C(=O)OC)[nH]c(NN)cc1=O`, greater than 100 µM; in that of `CC1(C)C(=O)C(O)=CC2C1=CCC1C2(C)C(=O)CC2(C)C(C(C)(O)C(=O)CC(O)C(C)(C)O)C(O)CC12C` (centres undefined), 38.8 µM.
Still for that read-out and setting: in the case of `CCc1ccccc1NC(=O)C(=O)C(C(=O)c1ccc(OC)cc1)c1ccc(OC)cc1` (centres undefined) it was greater than 100 µM.
As to `COc1ccc(C(=O)N2c3ccccc3Sc3ccccc32)c(F)c1`, the GI50 was 2.72 µM and the TGI was greater than 100 µM.
`C/C(=N/N(C=O)C[n+]1ccccc1)C(CN(CC(C)C)CC(C)C)C(=O)Nc1ccc(C)cc1C` (centres undefined) yielded a TGI greater than 100 µM.
With `COc1cc(C2c3cc4c(cc3[C@@H](Nc3ccc(N(C)C)cc3)[C@H]3COC(=O)C23)OCO4)cc(OC)c1O` (some centres undefined), the GI50 was 2.37 µM; the TGI is 9.57 µM and 9.64 µM.
Turning to `COc1ccc([C@H]2CC(=O)N3CCCC3N2)cc1` (some centres undefined), the TGI is greater than 100 µM.
Take `C=C(C)C1CC2C(C)=C(OC(C)=O)C1n1c(=O)c3cc4ccccc4cc3c(=O)n12` (centres undefined): the TGI is greater than 100 µM.
The molecule `O=C(CCc1nc(=S)[nH][nH]1)NC12CC3CC(CC(C3)C1)C2` returned a TGI greater than 100 µM.
For `CSc1nc2c(c(O)c(C)c(=O)n2C2OC(COC(C)=O)C(OC(C)=O)C(OC(C)=O)C2OC(C)=O)c(=O)n1C` (centres undefined), the TGI was greater than 100 µM.
`Cc1nc2c(n1CC(C)(C)C)C(=O)c1ccccc1C2=O` showed a TGI greater than 100 µM.
In turn, `CC(C)N(C(=O)C12C3C4C1C1C2C3C41C(O)C(C)(C)C)C(C)C` (centres undefined) registered a TGI greater than 50 µM.

A further test has as its system HCT-15 colon. The experiment in a line: inhibition of tumour cell growth, NCI panel, 48 h.
The molecule `O=C1c2ccccc2N2OC3(N4CCCC4)CCCC3C12c1ccccc1` (centres undefined) showed a TGI greater than 100 µM.
Turning to `COc1ccc(C2C(Cl)C(=O)N2n2cnc3ccccc3c2=O)cc1OC` (centres undefined), the TGI was greater than 100 µM.
As for `Nc1nc2c(ncn2Cc2ccccc2CCO)c(=O)[nH]1`, the TGI is greater than 100 µM.
